This note sets out measurements from patent US20260070945A1, “MACROCYCLIC IMMUNOMODULATORS” (Bristol-Myers Squibb Company, priority 2022, published 2026).

*1 amine or outer side, *2 acyl side, *3 side chain or, on linkers, in order; H or OH if unused. Where a SMILES comes first, the peptide text is derived from it. Bridges are numbered along the chain shown (N, C = ends). [ ]: non-standard residue; d: D form. The star is where a group is joined. ξ: configuration not given here. Phe(4-COOH) = N[C@@H](Cc1ccc(C(=O)O)cc1)C(=O)O; Bip = N[C@@H](Cc1ccc(-c2ccccc2)cc1)C(=O)O; Phe(3-Me) = Cc1cccc(C[C@H](N)C(=O)O)c1; γGlu = O=C(O)[C@H](CCC(=O)[*:2])N[*:1]; NMeAEEA = CN(CCOCCOCC(=O)[*:2])[*:1]; Val(3-OH) = CC(C)(O)[C@H](N)C(=O)O; hArg = N=C(N)NCCCC[C@H](N)C(=O)O; 4Pal = N[C@@H](Cc1ccncc1)C(=O)O; Cha = N[C@@H](CC1CCCCC1)C(=O)O; Cit = NC(=O)NCCC[C@H](N)C(=O)O; Gly(cPr) = N[C@H](C(=O)O)C1CC1; Ile(3ξ) = CCC(C)[C@H](N)C(=O)O; Thr(3ξ) = CC(O)[C@H](N)C(=O)O; 12Ado = NCCCCCCCCCCCC(=O)O; Carboxymethyl = O=C(O)C*; NMeA = CN[C@@H](C)C(=O)O; Orn = NCCC[C@H](N)C(=O)O; Aun = NCCCCCCCCCCC(=O)O; Dab = NCC[C@H](N)C(=O)O; Dap = NC[C@H](N)C(=O)O; AEEA = NCCOCCOCC(=O)O; Sar = CNCC(=O)O

T1 sequence (Q15116 25-288): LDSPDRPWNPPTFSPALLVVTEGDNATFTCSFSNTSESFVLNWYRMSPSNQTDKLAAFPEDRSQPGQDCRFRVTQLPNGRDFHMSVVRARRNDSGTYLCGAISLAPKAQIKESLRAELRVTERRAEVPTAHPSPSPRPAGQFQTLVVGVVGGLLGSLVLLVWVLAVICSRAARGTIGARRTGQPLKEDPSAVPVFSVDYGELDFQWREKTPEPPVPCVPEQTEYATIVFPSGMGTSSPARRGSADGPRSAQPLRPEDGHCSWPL

The assay addresses T1, PD-1/PD-L1 interaction (PE-labeled human PD-L1-Ig binding to Jurkat cell line over-expressing human PD-1) (Homo sapiens, UniProt Q15116).
T1 construct: expressed in transfected cells; host or cells: Jurkat
The assay is described as follows: Jurkat-PD-1 Cell Binding High-Content Screening Assay (CBA). Particulars: Jurkat-hPD-1 cells, PE-labeled PD-L1-Ig 20 nM final; read-out: Jurkat HPD1 PDL1 IC50. The method in brief: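 Jurkat-hPD-1 cells (8×10^3/well) in DMEM with 10% fetal calf serum were preincubated with compound for 2 h at 37 °C. PE-labeled PD-L1-Ig was then added at 20 nM final for 1 h. Cells were fixed in paraformaldehyde with Hoechst 33342, washed and imaged by high-content imaging.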
As for `Cc1cccc(C[C@@H]2NC(=O)[C@H](CC(=O)O)NC(=O)[C@H](Cc3ccc(OCC(=O)O)cc3)NC(=O)[C@H]([C@@H](C)O)NC(=O)CSC[C@@H](C(=O)N[C@@H](CC(N)=O)C(=O)NCCOCCOCC(=O)NCCCCCCCCCCC(=O)O)NC(=O)[C@H](CCC(=O)O)NC(=O)[C@H](C(C)(C)O)NC(=O)[C@H](CC3CCCCC3)NC(=O)[C@H](CCN)NC(=O)[C@@H](CC(C)C)NC(=O)[C@H](C)N(C)C(=O)[C@H](Cc3ccc(OCC(=O)O)cc3)NC(=O)[C@H](Cc3ccc(-c4ccccc4)cc3)NC(=O)[C@H](Cc3ccc(OCC(=O)O)cc3)NC2=O)c1` [Example 1415] ({CH2CO}-TY(Carboxymethyl)D[Phe(3-Me)]Y(Carboxymethyl)[Bip]Y(Carboxymethyl)[NMeA][dL][Dab][Cha][Val(3-OH)]ECN[AEEA][Aun]-OH; thioether N-14), the concentration for half-maximal inhibition (IC50) stood at 172 nM.

For `CC(C)C[C@@H]1NC(=O)[C@H](Cc2c[nH]c3ccccc23)NC(=O)[C@H](CC(=O)O)NC(=O)[C@H](Cc2ccncc2)NC(=O)[C@H](Cc2ccc(OCC(=O)O)cc2)NC(=O)CSC[C@@H](C(=O)N[C@@H](CCN)C(=O)NCCCCCCCCCCC(=O)O)NC(=O)[C@H](CO)NC(=O)[C@H](C(C)C)NC(=O)[C@H](CC2CCCCC2)NC(=O)[C@H](CCN)NC(=O)[C@@H](CC(C)C)NC(=O)[C@H](C)N(C)C(=O)[C@H](C(C)C)NC(=O)[C@H](Cc2ccc(-c3ccccc3)cc2)NC1=O` [Example 1083] ({CH2CO}-Y(Carboxymethyl)[4Pal]DWL[Bip]V[NMeA][dL][Dab][Cha]VSC[Dab][Aun]-OH; thioether N-14), the IC50 came out at 15.7 nM.

For the compound `CC(C)C[C@@H]1NC(=O)[C@H](Cc2c[nH]c3ccccc23)NC(=O)[C@H](CC(=O)O)NC(=O)[C@H](Cc2ccc(OCC(=O)O)cc2)NC(=O)[C@H](CCCCNC(=N)N)NC(=O)CSC[C@@H](C(=O)NCC(=O)N[C@@H](CCCN)C(=O)NCCCCCCCCCCCC(=O)O)NC(=O)[C@H](CO)NC(=O)[C@H](C(C)C)NC(=O)[C@H](CC2CCCCC2)NC(=O)[C@H](CCN)NC(=O)[C@@H](CC(C)C)NC(=O)[C@H](C)N(C)C(=O)[C@H](C(C)C)NC(=O)[C@H](Cc2ccc(-c3ccccc3)cc2)NC1=O` [Example 2121] ({CH2CO}-[hArg]Y(Carboxymethyl)DWL[Bip]V[NMeA][dL][Dab][Cha]VSCG[Orn][12Ado]-OH; thioether N-14), the IC50 was 19.4 nM.

Turning to `CCC(C)[C@@H]1NC(=O)[C@H](Cc2ccc(-c3ccccc3)cc2)NC(=O)[C@H](C(C)C)NC(=O)[C@H](Cc2c[nH]c3ccccc23)NC(=O)[C@H](CC(=O)O)NC(=O)[C@H](Cc2ccc(O)cc2)NC(=O)[C@H](Cc2ccncc2)NC(=O)CSC[C@@H](C(=O)N[C@@H](C)C(=O)NCCOCCOCC(=O)N[C@@H](CCCN)C(=O)NCCCCCCCCCCC(=O)O)NC(=O)[C@H](C(C)O)NC(=O)[C@H](C(C)C)NC(=O)[C@H](CC2CCCCC2)NC(=O)[C@H](CCN)NC(=O)[C@@H](CC(C)C)NC(=O)[C@H](C)N(C)C1=O` (stereo partly drawn) [Example 2077] ({CH2CO}-[4Pal]YDWV[Bip][Ile(3ξ)][NMeA][dL][Dab][Cha]V[Thr(3ξ)]CA[AEEA][Orn][Aun]-OH; thioether N-14), the IC50 was 14.1 nM.

Turning to `Cc1cccc(C[C@@H]2NC(=O)[C@H](CC(=O)O)NC(=O)[C@H](Cc3ccc(OCC(=O)O)cc3)NC(=O)[C@H]([C@@H](C)O)NC(=O)CSC[C@@H](C(=O)N[C@@H](CCN)C(=O)NCCOCCOCC(=O)NCCCCCCCCCCC(=O)O)NC(=O)[C@H](CCCN)NC(=O)[C@H](C(C)C)NC(=O)[C@H](CC3CCCCC3)NC(=O)[C@H](CC(N)=O)NC(=O)[C@@H](CC(C)C)NC(=O)[C@H](C)N(C)C(=O)[C@H](Cc3ccc(OCC(=O)O)cc3)NC(=O)[C@H](Cc3ccc(-c4ccccc4)cc3)NC(=O)[C@H](Cc3ccc(OCC(=O)O)cc3)NC2=O)c1` [Example 1363] ({CH2CO}-TY(Carboxymethyl)D[Phe(3-Me)]Y(Carboxymethyl)[Bip]Y(Carboxymethyl)[NMeA][dL]N[Cha]V[Orn]C[Dab][AEEA][Aun]-OH; thioether N-14), the concentration for half-maximal inhibition (IC50) worked out at 25.3 nM.

As to `CC(=O)NCCCC[C@@H]1NC(=O)[C@H](Cc2ccc(-c3ccccc3)cc2)NC(=O)[C@H](C(C)C)NC(=O)[C@H](Cc2cccc(C)c2)NC(=O)[C@H](CC(=O)O)NC(=O)[C@H](Cc2ccc(OCC(=O)O)cc2)NC(=O)[C@H](CN)NC(=O)CSC[C@@H](C(=O)N(C)CCOCCOCC(=O)NCCCCCCCCCCC(=O)O)NC(=O)[C@H](CCCN)NC(=O)[C@H](C(C)C)NC(=O)[C@H](CC2CCCCC2)NC(=O)[C@H](CCN)NC(=O)[C@@H](CC(C)C)NC(=O)[C@H](C)N(C)C1=O` [Example 2415] ({CH2CO}-[Dap]Y(Carboxymethyl)D[Phe(3-Me)]V[Bip]K(Ac)[NMeA][dL][Dab][Cha]V[Orn]C[NMeAEEA][Aun]-OH; thioether N-14), the IC50 amounted to 41.2 nM.

For `CC(C)C[C@@H]1NC(=O)[C@H](Cc2c[nH]c3ccccc23)NC(=O)[C@H](CC(=O)O)NC(=O)[C@H](Cc2ccc(C(=O)O)cc2)NC(=O)[C@H](Cc2ccc(OCC(=O)O)cc2)NC(=O)CSC[C@@H](C(=O)NCCOCCOCC(=O)NCCCCCCCCCCC(=O)O)NC(=O)[C@H](CCN)NC(=O)[C@H](C(C)(C)O)NC(=O)[C@H](CC2CCCCC2)NC(=O)[C@H](CCN)NC(=O)[C@@H](CC(C)C)NC(=O)[C@H](C)N(C)C(=O)[C@H](C(C)C)NC(=O)[C@H](Cc2ccc(-c3ccccc3)cc2)NC1=O` [Example 1120] ({CH2CO}-Y(Carboxymethyl)[Phe(4-COOH)]DWL[Bip]V[NMeA][dL][Dab][Cha][Val(3-OH)][Dab]C[AEEA][Aun]-OH; thioether N-14), the IC50 worked out at 13.6 nM.

For `Cc1cccc(C[C@@H]2NC(=O)[C@H](CC(=O)O)NC(=O)[C@H](Cc3ccncc3)NC(=O)[C@H](Cc3ccc(OCC(=O)O)cc3)NC(=O)CSC[C@@H](C(=O)N[C@@H](CCN)C(=O)NCCOCCOCC(=O)NCCCCCCCCCCC(=O)O)NC(=O)[C@H](CO)NC(=O)[C@H](C(C)(C)O)NC(=O)[C@H](CC3CCCCC3)NC(=O)[C@H](CCN)NC(=O)[C@@H](CC(C)C)NC(=O)[C@H](C)N(C)C(=O)[C@H](Cc3ccc(OCC(=O)O)cc3)NC(=O)[C@H](Cc3ccc(-c4ccccc4)cc3)NC(=O)[C@H](Cc3ccc(OCC(=O)O)cc3)NC2=O)c1` [Example 1412] ({CH2CO}-Y(Carboxymethyl)[4Pal]D[Phe(3-Me)]Y(Carboxymethyl)[Bip]Y(Carboxymethyl)[NMeA][dL][Dab][Cha][Val(3-OH)]SC[Dab][AEEA][Aun]-OH; thioether N-14), the IC50 was 207 nM.

With `Cc1cccc(C[C@@H]2NC(=O)[C@H](CC(=O)O)NC(=O)[C@H](Cc3ccncc3)NC(=O)[C@H](Cc3ccc(OCC(=O)O)cc3)NC(=O)CSC[C@@H](C(=O)NCC(=O)N[C@@H](CCC(=O)NCCOCCOCC(=O)N[C@@H](CCC(=O)NCCOCCOCC(=O)NCCCCCCCCCCC(=O)O)C(=O)O)C(=O)O)NC(=O)[C@H](CO)NC(=O)[C@H](C(C)C)NC(=O)[C@H](CC(C)C)NC(=O)[C@H](CC(N)=O)NC(=O)[C@@H](CC(C)C)NC(=O)[C@H](C)N(C)C(=O)[C@H](C(C)C)NC(=O)[C@H](Cc3ccc(-c4ccccc4)cc3)NC(=O)[C@H](CC(C)C)NC2=O)c1` [Example 1016] ({CH2CO}-Y(Carboxymethyl)[4Pal]D[Phe(3-Me)]L[Bip]V[NMeA][dL]NLVSCG[γGlu][AEEA][γGlu][AEEA][Aun]-OH; thioether N-14), the IC50 was 29.8 nM.

`Cc1cccc(C[C@@H]2NC(=O)[C@H](CC(=O)O)NC(=O)[C@H](Cc3ccc(OCC(=O)O)cc3)NC(=O)[C@H](CN)NC(=O)CSC[C@@H](C(=O)N[C@@H](CCCN)C(=O)N[C@@H](CO)C(=O)NCCCCCCCCCCCC(=O)O)NC(=O)[C@H](C(C)O)NC(=O)[C@H](C(C)C)NC(=O)[C@H](CC3CCCCC3)NC(=O)[C@H](CCN)NC(=O)[C@@H](CC(C)C)NC(=O)[C@H](C)N(C)C(=O)[C@H](CCCNC(N)=O)NC(=O)[C@H](Cc3ccc(-c4ccccc4)cc3)NC(=O)[C@H](Cc3ccc(O)cc3)NC2=O)c1` (stereo partly drawn) [Example 2402] ({CH2CO}-[Dap]Y(Carboxymethyl)D[Phe(3-Me)]Y[Bip][Cit][NMeA][dL][Dab][Cha]V[Thr(3ξ)]C[Orn]S[12Ado]-OH; thioether N-14): the IC50 amounted to 51.7 nM.

`CC(=O)NCCCC[C@@H]1NC(=O)[C@H](C(C)C)NC(=O)[C@H](CC2CCCCC2)NC(=O)[C@H](CCN)NC(=O)[C@@H](CC(C)C)NC(=O)[C@H](C)N(C)C(=O)[C@H](Cc2ccc(O)cc2)NC(=O)[C@H](Cc2ccc(-c3ccccc3)cc2)NC(=O)[C@H](C(C)C)NC(=O)[C@H](Cc2cccc(C)c2)NC(=O)[C@H](CC(=O)O)NC(=O)[C@H](Cc2ccc(OCC(=O)O)cc2)NC(=O)[C@H](C(C)O)NC(=O)CSC[C@@H](C(=O)N(C)CC(=O)NCCCCCCCCCCC(=O)O)NC1=O` (stereo partly drawn) [Example 2274] ({CH2CO}-[Thr(3ξ)]Y(Carboxymethyl)D[Phe(3-Me)]V[Bip]Y[NMeA][dL][Dab][Cha]VK(Ac)C[Sar][Aun]-OH; thioether N-14): the IC50 is 85.5 nM.

On to `Cc1cccc(C[C@@H]2NC(=O)[C@H](CC(=O)O)NC(=O)[C@H](Cc3ccc(C(=O)O)cc3)NC(=O)[C@H](CCN)NC(=O)CSC[C@@H](C(=O)N[C@@H](CCN)C(=O)NCCCCCCCCCCC(=O)O)NC(=O)[C@H](CO)NC(=O)[C@H](C(C)(C)O)NC(=O)[C@H](CC3CCCCC3)NC(=O)[C@H](CCN)NC(=O)[C@@H](CC(C)C)NC(=O)[C@H](C)N(C)C(=O)[C@H](Cc3ccc(OCC(=O)O)cc3)NC(=O)[C@H](Cc3ccc(-c4ccccc4)cc3)NC(=O)[C@H](C3CC3)NC2=O)c1` [Example 1295] ({CH2CO}-[Dab][Phe(4-COOH)]D[Phe(3-Me)][Gly(cPr)][Bip]Y(Carboxymethyl)[NMeA][dL][Dab][Cha][Val(3-OH)]SC[Dab][Aun]-OH; thioether N-14), for which the IC50 was 11.2 nM.

What is called IC50 is the concentration at which inhibition is half-maximal.
